Assay results taken from patent US20250154109A1, “SODIUM CHANNEL BLOCKING COMPOUNDS, DERIVATIVES THEREOF, AND METHODS OF THEIR USE” (LATIGO BIOTHERAPEUTICS, INC, priority 2022, published 2025).
pIC50: −log10 of the molar value. Like-named read-outs stand apart in the source and are kept apart here.

Biological target: human Nav1.8 (Homo sapiens, UniProt Q9Y5Y9)
Assay: SyncroPatch384PE assay (automated patch clamp)
Type: cell-based
Conditions: human Nav1.8/b3 CHO cells
Method: Compounds were tested on recombinant human Nav1.8/b3 stably transfected CHO cells using the SyncroPatch384PE system (Nanion Technologies), an automated patch clamp device. Cells were cultured at 37° C./5% CO2 in Ham's F-12 supplemented with 10% fetal bovine serum, 100 U/mL penicillin G sodium, […] streptomycin sulfate and selection antibiotics (0.01 mg/mL Blasticidin, 0.4 mg/mL Zeocin and 0.25 mg/mL Hygromycin). On the day of the recordings, cells in culture dishes were washed twice with Hank's Balanced Salt Solution (HBSS) and treated with Accutase for approximately 20 minutes. Immediately before use in the SynchroPatch384PE using an 8-hole NPC-384 chip, the cells were washed in HBSS to remove the Accutase and re-suspended in extracellular solution. All experiments were performed at ambient temperature. Intracellular solution contained (mM): CsCl, 50; CsF, 90; MgCl2, 5; EGTA, 1; HEPES, 10; pH adjusted to 7.2 with CsOH. Extracellular solution contained (mM): NaCl, 137; KCl, 4.0; CaCl2), 3.8; MgCl2, 1; HEPES, 10; Glucose, 10; pH adjusted to 7.4 with NaOH. 100 nM tetrodotoxin (TTX) was added to the extracellular solution to block endogenous TTX-sensitive sodium currents.
Compounds were tested in quadruplicate in 0.3% DMSO and 0.03% pluronic Acid. Compounds were diluted 1:3.33 in extracellular solution to create an 8-point concentration response curve. Each plate contained a historical positive control and up to ten compounds. 300 μM tetracaine and 0.3% DMSO+0.03% pluronic acid were used as high and low controls respectively.
Whole cell patch clamp recordings were conducted according to Nanion's standard procedure for SyncroPatch384PE®. Cells were held at a holding potential of −120 mV. A depolarization step to 10 mV for 30 ms was applied (P1 measurement), followed by a hyperpolarization step to −100 mV for 100 ms. An inactivation step at −35 mV for 10 sec was applied before stepping to −100 mV for 20 ms, followed by a step to 10 mV for 30 ms (P2 measurement) and then back to −100 mV for 30 ms. Sweep interval was 15 sec. Following establishment of the whole-cell configuration in extracellular solution, cells were washed in extracellular solution containing 0.3% DMSO and 0.03% pluronic acid to stabilize the baseline current. Compounds were then applied by the SynchroPatch384 PE system into each well and the current was recorded for five minutes in extracellular solution, followed by application of tetracaine to achieve full block at the end of experiment. The potency of the compounds was assessed on two read-outs, resting state block (P1 measurement) or inactivated state block (P2 measurement) to obtain IC50 values. Values were normalized to high (tetracaine) and low (DMSO+pluronic acid) controls.
Examples 1 to 219 and Examples 225 to 236 are assayed using SyncroPatch384PE assay described above.

[1] = inactivated state block (P2 measurement), read-out: P2 IC50
[2] = resting state block (P1 measurement), read-out: P1 IC50

Sequence of human Nav1.8 (Q9Y5Y9 whole entry): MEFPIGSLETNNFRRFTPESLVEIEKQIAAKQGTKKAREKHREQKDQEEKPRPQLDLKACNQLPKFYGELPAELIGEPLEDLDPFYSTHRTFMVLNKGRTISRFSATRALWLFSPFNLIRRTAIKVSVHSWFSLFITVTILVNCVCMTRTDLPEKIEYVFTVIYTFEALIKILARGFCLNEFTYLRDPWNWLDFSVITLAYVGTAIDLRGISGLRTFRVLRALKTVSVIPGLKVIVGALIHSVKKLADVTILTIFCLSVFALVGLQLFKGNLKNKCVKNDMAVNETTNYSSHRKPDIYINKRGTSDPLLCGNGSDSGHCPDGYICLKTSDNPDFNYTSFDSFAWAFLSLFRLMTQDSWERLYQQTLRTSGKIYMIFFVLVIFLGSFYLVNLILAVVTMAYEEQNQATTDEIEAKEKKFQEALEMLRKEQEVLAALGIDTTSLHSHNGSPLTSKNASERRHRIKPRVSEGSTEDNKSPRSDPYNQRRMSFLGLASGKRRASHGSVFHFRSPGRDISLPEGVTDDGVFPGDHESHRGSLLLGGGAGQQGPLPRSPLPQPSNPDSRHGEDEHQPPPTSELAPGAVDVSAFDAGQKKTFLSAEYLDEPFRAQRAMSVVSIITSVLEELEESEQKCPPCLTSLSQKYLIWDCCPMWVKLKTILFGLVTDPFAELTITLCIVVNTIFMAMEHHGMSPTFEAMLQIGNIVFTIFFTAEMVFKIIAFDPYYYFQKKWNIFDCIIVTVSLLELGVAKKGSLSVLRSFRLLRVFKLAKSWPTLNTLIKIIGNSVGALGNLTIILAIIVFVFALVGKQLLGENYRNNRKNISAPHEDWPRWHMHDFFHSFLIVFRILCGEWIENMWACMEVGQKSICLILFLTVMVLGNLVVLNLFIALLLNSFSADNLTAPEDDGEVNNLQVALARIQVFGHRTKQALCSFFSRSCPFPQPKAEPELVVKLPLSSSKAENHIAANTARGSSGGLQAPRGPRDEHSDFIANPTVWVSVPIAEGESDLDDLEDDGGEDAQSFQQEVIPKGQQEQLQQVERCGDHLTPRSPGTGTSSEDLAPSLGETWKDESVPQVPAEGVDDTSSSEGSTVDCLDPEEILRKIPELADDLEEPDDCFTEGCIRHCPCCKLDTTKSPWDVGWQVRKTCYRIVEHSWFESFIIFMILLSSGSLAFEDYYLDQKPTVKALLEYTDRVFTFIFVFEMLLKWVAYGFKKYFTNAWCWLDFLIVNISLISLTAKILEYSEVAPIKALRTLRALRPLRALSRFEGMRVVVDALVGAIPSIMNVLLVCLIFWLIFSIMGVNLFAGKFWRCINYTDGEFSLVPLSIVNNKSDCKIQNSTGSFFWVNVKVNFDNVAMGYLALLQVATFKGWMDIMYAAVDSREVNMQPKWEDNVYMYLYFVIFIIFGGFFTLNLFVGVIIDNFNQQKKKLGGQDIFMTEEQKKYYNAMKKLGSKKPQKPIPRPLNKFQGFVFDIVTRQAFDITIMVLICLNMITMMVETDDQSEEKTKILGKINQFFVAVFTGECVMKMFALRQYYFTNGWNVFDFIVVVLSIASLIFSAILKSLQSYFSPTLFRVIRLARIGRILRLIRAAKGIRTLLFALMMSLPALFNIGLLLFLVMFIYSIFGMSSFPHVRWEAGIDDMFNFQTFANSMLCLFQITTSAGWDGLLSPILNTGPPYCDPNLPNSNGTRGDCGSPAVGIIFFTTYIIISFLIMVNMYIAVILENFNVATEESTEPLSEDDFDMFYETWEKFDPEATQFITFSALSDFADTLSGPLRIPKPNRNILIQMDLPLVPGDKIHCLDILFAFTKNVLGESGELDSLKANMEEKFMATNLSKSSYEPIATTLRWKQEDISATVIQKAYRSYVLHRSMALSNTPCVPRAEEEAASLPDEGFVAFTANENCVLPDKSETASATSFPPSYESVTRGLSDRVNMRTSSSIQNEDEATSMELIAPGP

Compound	pIC50 [1]	pIC50 [2]
COc1ccc(-c2nnc(N3CCCC(F)(F)CC3)c(C(=O)Nc3cccc([S@@](C)(=N)=O)c3)c2C)cc1 (single isomer, unassigned) [Example 137]	< 6.70	< 6.70
COc1ccc(-c2nnc(N3CCCC(F)(F)CC3)c(C(=O)Nc3cccc([S@](C)(=N)=O)c3)c2C)cc1 (single isomer, unassigned) [Example 138]	6.70 to 7.00	< 6.70
Cc1nc(N2CCCC(F)(F)CC2)c(C(=O)Nc2cccc([S@@](C)(=N)=O)c2)c(C)c1C(F)(F)F (single isomer, unassigned) [Example 185]	≥ 8.30	≥ 8.30
Cc1c(C(F)(F)F)cnc(N2CCCC(F)(F)CC2)c1C(=O)Nc1ccnc([S@@](C)(=N)=O)c1 (single isomer, unassigned) [Example 188]	≥ 8.30	≥ 8.30
Cc1c(C(F)(F)F)cnc(N2CCCC(F)(F)CC2)c1C(=O)Nc1ccnc([S@](C)(=N)=O)c1 (single isomer, unassigned) [Example 189]	≥ 8.30	≥ 8.30
CS(=N)(=O)c1cccc(NC(=O)c2cc(C(F)(F)F)nnc2N2CCCCCC2)c1 (centres unmarked) [Example 1, 3-(Azepan-1-yl)-N-(3-(S-methylsulfonimidoyl)phenyl)-6-(trifluoromethyl)pyridazine-4-carboxamide]	< 6.70	< 6.70
CS(=N)(=O)c1cc(NC(=O)c2cc(C(F)(F)F)nnc2N2CCCCCC2)ccn1 (centres unmarked) [Example 2, 3-(azepan-1-yl)-N-{2-[imino(methyl)oxo-λ^6-sulfanyl]pyridin-4-yl}-6-(trifluoromethyl)pyridazine-4-carboxamide]	< 6.70	< 6.70
Cc1c(C(F)(F)F)nnc(N2CCCCCC2)c1C(=O)Nc1cccc(S(C)(=N)=O)c1 (centres unmarked) [Example 7, 3-(azepan-1-yl)-5-methyl-N-(3-(S-methylsulfonimidoyl)phenyl)-6-(trifluoromethyl)pyridazine-4-carboxamide]	6.70 to 7.00	6.70 to 7.00
Cc1c(C(F)(F)F)nnc(N2CCCCCC2)c1C(=O)N=S(C)(=O)c1cccc(N)c1 (centres unmarked) [Example 8, N-((3-aminophenyl)(methyl)(oxo)-λ^6-sulfaneylidene)-3-(azepan-1-yl)-5-methyl-6-(trifluoromethyl)pyridazine-4-carboxamide]	< 6.70	< 6.70
CS(=N)(=O)c1cccc(NC(=O)c2nnc(C(F)(F)F)cc2N2CCCCCC2)c1 (centres unmarked) [Example 9, 4-(azepan-1-yl)-N-(3-(S-methylsulfonimidoyl)phenyl)-6-(trifluoromethyl)pyridazine-3-carboxamide]	< 6.70	< 6.70
Cc1c(C(F)(F)F)nnc(N2CCCCCC2)c1C(=O)Nc1cccc([S@](C)(=N)=O)c1 [Example 10, (R)-3-(azepan-1-yl)-5-methyl-N-(3-(S-methylsulfonimidoyl)phenyl)-6-(trifluoromethyl)pyridazine-4-carboxamide]	7.00 to 7.30	7.00 to 7.30
Cc1c(C(F)(F)F)nnc(N2CCCCCC2)c1C(=O)Nc1cccc([S@@](C)(=N)=O)c1 [Example 11, (S)-3-(azepan-1-yl)-5-methyl-N-(3-(S-methylsulfonimidoyl)phenyl)-6-(trifluoromethyl)pyridazine-4-carboxamide]	6.70 to 7.00	6.70 to 7.00
C=CCCc1ccc(C(=O)Nc2cccc(S(C)(=N)=O)c2)c(N2CCCC(F)(F)CC2)n1 (centres unmarked) [Example 13, 6-(3-Buten-1-yl)-2-(4,4-difluoroazepan-1-yl)-N-(3-(S-methylsulfonimidoyl)phenyl)nicotinamide]	≥ 8.30	≥ 8.30
CS(=N)(=O)c1cccc(NC(=O)c2cc(C(F)(F)F)nnc2N2CCC3(CC2)CC3)c1 (centres unmarked) [Example 14, N-(3-(S-methylsulfonimidoyl)phenyl)-3-(6-azaspiro[2.5]octan-6-yl)-6-(trifluoromethyl)pyridazine-4-carboxamide]	< 6.70	< 6.70
Cc1c(-c2ccccc2)nnc(N2CCCC(F)(F)CC2)c1C(=O)Nc1cccc(S(C)(=N)=O)c1 (centres unmarked) [Example 20, 3-(4,4-difluoroazepan-1-yl)-5-methyl-N-(3-(S-methylsulfonimidoyl)phenyl)-6-phenylpyridazine-4-carboxamide]	7.00 to 7.30	7.00 to 7.30
CS(=N)(=O)c1cccc(NC(=O)c2nnc(C(F)(F)F)cc2N2CCCC(F)(F)CC2)c1 (centres unmarked) [Example 21, 4-(4,4-difluoroazepan-1-yl)-N-(3-(S-methylsulfonimidoyl)phenyl)-6-(trifluoromethyl)pyridazine-3-carboxamide]	< 6.70	< 6.70

More lines, now with the values ahead:

pIC50 [1]	pIC50 [2]	Compound
≥ 8.30	≥ 8.30	Cc1nc(N2CCCC(F)(F)CC2)c(C(=O)Nc2cccc([S@](C)(=N)=O)c2)c(C)c1C(F)(F)F (single isomer, unassigned) [Example 186]
≥ 8.30	≥ 8.30	Cc1nc(N2CCCC(F)(F)CC2)c(C(=O)Nc2cccc(S(C)(=N)=O)c2)cc1C(F)(F)F (centres unmarked) [Example 3, 2-(4,4-difluoroazepan-1-yl)-6-methyl-N-(3-(S-methylsulfonimidoyl)phenyl)-5-(trifluoromethyl)nicotinamide]
≥ 8.30	≥ 8.30	Cc1nc(N2CCCC(F)(F)CC2)c(C(=O)Nc2cccc([S@@](C)(=N)=O)c2)cc1C(F)(F)F [Example 5, (S)-2-(4,4-Difluoroazepan-1-yl)-6-methyl-N-(3-(S-methylsulfonimidoyl)phenyl)-5-(trifluoromethyl)nicotinamide]
7.30 to 8.30	7.30 to 8.30	CS(=N)(=O)c1cccc(NC(=O)c2cc(C(F)(F)F)nnc2N2CCCC(F)(F)CC2)c1 (centres unmarked) [Example 6, 3-(4,4-difluoroazepan-1-yl)-N-(3-(S-methylsulfonimidoyl)phenyl)-6-(trifluoromethyl)pyridazine-4-carboxamide]
≥ 8.30	≥ 8.30	Cc1nc(N2CCC3(CC2)CC3)c(C(=O)Nc2cccc(S(C)(=N)=O)c2)cc1Cl (centres unmarked) [Example 12, 5-chloro-6-methyl-N-(3-(S-methylsulfonimidoyl)phenyl)-2-(6-azaspiro[2.5]octan-6-yl)nicotinamide]
≥ 8.30	≥ 8.30	Cc1nc(N2CCCC(F)(F)CC2)c(C(=O)Nc2cccc(S(C)(=N)=O)c2)cc1Cl (centres unmarked) [Example 15, 5-chloro-2-(4,4-difluoroazepan-1-yl)-6-methyl-N-(3-(S-methylsulfonimidoyl)phenyl)nicotinamide]
≥ 8.30	≥ 8.30	Cc1nc(N2CCCC(F)(F)CC2)c(C(=O)Nc2cccc([S@](C)(=N)=O)c2)cc1Cl [Example 16, (R)-5-chloro-2-(4,4-difluoroazepan-1-yl)-6-methyl-N-(3-(S-methylsulfonimidoyl)phenyl)nicotinamide]
6.70 to 7.00	< 6.70	C[S@@](=N)(=O)c1cccc(NC(=O)c2cc(C(F)(F)F)nnc2N2CCCC(F)(F)CC2)c1 [Example 18, (R)-3-(4,4-difluoroazepan-1-yl)-N-(3-(S-methylsulfonimidoyl)phenyl)-6-(trifluoromethyl)pyridazine-4-carboxamide]
6.70 to 7.00	< 6.70	C[S@](=N)(=O)c1cccc(NC(=O)c2cc(C(F)(F)F)nnc2N2CCCC(F)(F)CC2)c1 [Example 19, (S)-3-(4,4-difluoroazepan-1-yl)-N-(3-(S-methylsulfonimidoyl)phenyl)-6-(trifluoromethyl)pyridazine-4-carboxamide]
